The values that follow come from patent publication US12186365B2, “Composition for regulating cell division comprising FCHO1 modulator, and method for regulating cell division using same” (SEOUL NATIONAL UNIVERSITY R&DB FOUNDATION, priority 2015, dated 2025).

Marks after values point to notes of the source that are not given here. Ends that are not written are not given here. Peptide text beside a SMILES is read from it. * marks the point of attachment. Cbz = O=C(OCc1ccccc1)*

Data set [1] deals with cells. The data set is described as follows: Real-time cell growth measurement using Xcelligence. To be noted: peptides treated in 10 μM, FIG. 30. Type of data set: cell-based. As for the experimental part:
Cell viability was measured using Xcelligence for in real time observation, and the peptides were treated in 10 μM. […] The results are illustrated in FIG. 30.

The test system of another data set is FCHo1 cleavage. The data set is described as follows: Immunoblot of FCHo1 cleavage in A549 cell extract with or without MG132. Type of data set: cell-based, human. To be noted: 1 μM MG132, 16 hours, A549 cells. How it is done:
The cells were dissolved in IP dissolution buffer for 30 min at 4° C. After centrifugation at 17,000×g for 30 minutes, the concentration of the protein was measured, and the same amount of lysate was used for immunoprecipitation. The immunoprecipitation was carried out overnight at 4° C. using anti-FLAG M^2 affinity gel (Sigma-Aldrich). The precipitate was washed three times with washing solution, and the precipitated proteins were separated using SDS-PAGE. Western blotting was carried out using anti-rabbit antibodies conjugated with specific antibodies and secondary anti-mouse IgG Veriblot or horseradish peroxidase. The results were visualized using a chemiluminescence detector (Atto Ez-Capture MG).
To test the potential involvement of specific proteases to cleave FCHo1, the cells were treated with 1 μM MG132, a protease inhibitor for 16 hours. Immunoblotting of the A549 cell extract was performed in the presence or absence of the MG132 protease inhibitor, and the results are illustrated in FIG. 5.
In general terms: Immunoblotting shows a protein as a band on a membrane.

Data set [2] has as its system cells. The data set is described as follows: Intracellular uptake of biotin-conjugated peptides (streptavidin-488, CLSM). Type of data set: cell-based. Conditions: biotin-conjugated peptide, no carrier or CPP, FIG. 29. How it is done:
Biotin-conjugated peptides were treated to cells and fixed on the cells, followed by reaction with streptavidin-488 fluorescent dye, followed by observation with CLSM. The results are illustrated in FIG. 29.

The target of the next data set is T1, Akt1 (Homo sapiens, UniProt P31749).
T1 construct: After treating with the cell lysates; endogenous in cells
The data set can be described thus: In vitro binding of biotin-conjugated FCHo1-derived peptides to Akt1 (streptavidin plate, cell lysates, Akt1 antibody). Conditions: biotin-conjugated peptide on streptavidin plate, FIG. 28. The text has this: To confirm the binding affinity between Akt1 and Akt1 motif-containing FCHo1 amino acid sequence-derived peptides, biotin was conjugated to peptides to complete the synthetization. The peptides were reacted and attached to on the streptavidin-attached plate. After treating with the cell lysates, the binding affinity of the peptide and Akt1 was confirmed by the Akt1 antibody. The experiment process and its result of confirming in vitro binding affinity of Akt1 according to respective peptides derived from FCHo1 binding sites are illustrated in FIG. 28.

The next data set relates to mouse FCHo1. The data set is described as follows: FCHo1 inhibitory effect of shRNA sequences acting on mouse FCHo1. To be noted: among four shRNA sequences, SEQ ID NOs: 1 to 4. How it is done:
(§1) H&E slides were prepared to confirm whether adenoma and hyperplasia were reduced. The shFCHo1 was used for FCHo1 cleavage inhibition. The sequence thereof is represented in SEQ ID NOs: 1 to 4 based on FIG. 26. […] Therefore, this was used to perform this experiment.

Data set [3] has as its system lung cancer model mouse (K-ras). The data set is described as follows: Anticancer effect of aerosol-delivered lentiviral FCHo1 vectors in lung cancer model mouse. The class given is in vivo. Conditions: K-ras female mice, lentiviral vector inhaled 8 times for 4 weeks, H&E slides, 5 mice per group. How it is done: Lentiviral vectors were prepared for the full-length, mutation type and deletion type of FCHo1 and transferred to lung cancer model mouse in a non-invasive aerosol method. Then their anticancer effects were confirmed. Example 8 confirmed that the sites involved in FCHo1 cleavage in human cells were FCHo1^S570A and FCHo1^del563-564. Therefore, corresponding positions were confirmed in mouse FCHo1. It was confirmed that S570A corresponded to S554A and del563-564 corresponded to del544-545. […] Then, the anticancer effects thereof were compared. The results are illustrated in FIG. 25.
as §1

The next data set relates to A549 cells. The data set is described as follows: Midbody formation in A549 cells expressing FCHo1 constructs (CLSM, MKLP1 staining). The class given is cell-based, human. Conditions: A549 cells in mitosis, compared with wild-type FCHo1. How it is done: A549 cells were placed in 8-well chamber cover glasses or high-precision cover glasses and were fixed with 3% paraformaldehyde for 10 minutes at room temperature, permeabilized with 0.5% TRITON® X-100 (Sigma-Aldrich) for 5 min, blocked for 30 minutes. Then, the cells were incubated with primary or secondary antibodies in blocking solution (PBS with 0.1% saponin and 3% BSA). Alexa Fluor 647 conjugated anti-rabbit secondary antibody and an oxygen scavenging system (0.5 mg/ml glucose oxidase, 40 μg/ml catalase, 10% glucose, pH 7.4) were used for stochastic optical reconstruction microscopy (dSTORM) imaging. Before imaging, 30 mM mercaptoethylamine ([…]; Sigma) was added to obtain a final thiol concentration of 10-200 mM. All dSTORM and SIM images were obtained from Carl Zeiss ELYRA PS.1 (super-resolution microscopy), and all CLSM images were obtained from the Carl Zeiss LSM710 (confocal laser scanning microscope). […]
In the analysis using the synchronization method, the cells were stained with MKLP1 antibody for the central spindle or midbody type analyses. The rates of cells in anaphase (central spindle) and telophase (midbody) were quantified via CLSM images: FCHo1 siRNA (n=318), wt FCHo1 (n=702), FCHo1 Δ563-564 (n=756) and FCHo1 Δ531-589 (n=1952). […]

T1 sequence (P31749 whole entry): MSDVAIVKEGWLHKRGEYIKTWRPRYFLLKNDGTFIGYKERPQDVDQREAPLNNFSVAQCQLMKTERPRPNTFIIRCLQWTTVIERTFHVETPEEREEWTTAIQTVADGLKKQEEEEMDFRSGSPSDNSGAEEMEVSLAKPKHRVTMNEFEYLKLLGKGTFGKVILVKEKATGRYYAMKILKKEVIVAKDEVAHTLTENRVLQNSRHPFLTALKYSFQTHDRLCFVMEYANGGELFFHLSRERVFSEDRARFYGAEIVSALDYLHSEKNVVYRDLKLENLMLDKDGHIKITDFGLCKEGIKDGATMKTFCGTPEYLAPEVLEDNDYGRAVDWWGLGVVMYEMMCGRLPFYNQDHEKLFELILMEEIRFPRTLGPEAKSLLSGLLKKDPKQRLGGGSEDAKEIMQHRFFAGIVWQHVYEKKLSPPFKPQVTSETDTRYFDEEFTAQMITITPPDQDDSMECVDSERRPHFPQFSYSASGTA

In the case of “560-567: peptide derived from the FCHo1 amino acid sequence, residues 560-567 (PPRRLRSR; UniProt O14526 560-567, looked up, fragment)”, in the data set with cells [1], the “inhibitory effect on cell growth” value is given as “inhibitory effects on the cell growth”.

For `CC(C)C[C@@H](C=O)NC(=O)[C@H](CC(C)C)NC(=O)[C@H](CC(C)C)NC(=O)OCc1ccccc1` [MG132] (Cbz-Leu-Leu-Leu-aldehyde), in the data set on FCHo1 cleavage, the “cleaved FCHo1 protein (immunoblot)” value was “completely disappeared”.

With PPRRLRSRKVSC [560-571, PPRRLRSRKVSC], the “absorption into a cell” value in the data set with cells [2] was “increase in absorption into a cell in a concentration-dependent manner”.

As to RRLRSRKVSC (FCHo1 fragment) [562-571], the Akt1 binding affinity result with Akt1 is on record as “significantly increased”. The “inhibitory effect on cell growth” value in the data set with cells [1] was “inhibitory effects on the cell growth”.

Regarding “shFCHo1: shRNA acting on mouse FCHo1, SEQ ID NO: 2 (GAGAGAACACCAGCCAGAAUCUCUUCUGGCUGGUGUUCUCUC; hairpin, further chemistry not given here)”, in the data set on mouse FCHo1, the FCHo1 inhibitory effect entry is listed as “most significant FCHo1 inhibitory effect”. For the same molecule, in data set [3], the “No. of Adenocarcinoma” value is reported as 0.20 ± 0.45, the “No. of Adenoma” value turned out to be 0.60 ± 0.55 and the “No. of hyperplasia foci” value is 0.60 ± 0.55**^,#.

B1: Δ563-564: human FCHo1 with 563-564aa deleted (MMP-9 cleavage site), expressed in A549 cells (protein)
chain: MSYFGEHFWGEKNHGFEVLYHSVKQGPISTKELADFIRERATIEETYSKAMAKLSKLASNGTPMGTFAPLWEVFRVSSDKLALCHLELTRKLQDLIKDVLRYGEEQLKTHKKCKEEVVSTLDAVQVLSGVSQLLPKSRENYLNRCMDQERLRRESTSQKEMDKAETKTKKAAESLRRSVEKYNSARADFEQKMLDSALRFQAMEETHLRHMKALLGSYAHSVEDTHVQIGQVHEEFKQNIENVSVEMLLRKFAESKGTGREKPGPLDFEAYSAAALQEAMKRLRGAKAFRLPGLSRREREPEPPAAVDFLEPDSGTCPEVDEEGFTVRPDVTQNSTAEPSRFSSSDSDFDDEEPRKFYVHIKPAPARAPACSPEAAAAQLRATAGSLILPPGPGGTMKRHSSRDAAGKPQRPRSAPRTSSCAERLQSEEQVSKNLFGPPLESAFDHEDFTGSSSLGFTSSPSPFSSSSPENVEDSGLDSPSHAAPGPSPDSWVPRPGTPQSPPSCRAPPPEARGIRAPPLPDSPQPLASSPGPWGLEALAGGDLMPAPADPTAREGLAAPPRRSRKVSCPLTRSNGDLSRSLSPSPLGSSAASTALERPSFLSQTGHGVSRGPSPVVLGSQDALPIATAFTEYVHAYFRGHSPSCLARVTGELTMTFPAGIVRVFSGTPPPPVLSFRLVHTTAIEHFQPNADLLFSDPSQSDPETKDFWLNMAALTEALQRQAEQNPTASYYNVVLLRYQFSRPGPQSVPLQLSAHWQCGATLTQVSVEYGYRPGATAVPTPLTNVQILLPVGEPVTNVRLQPAATWNLEEKRLTWRLPDVSEAGGSGRLSASWEPLSGPSTPSPVAAQFTSEGTTLSGVDLELVGSGYRMSLVKRRFATGMYLVSC
modifications: Fcho1 delta563-564
notes: human FCHo1 with 563-564aa deleted (MMP-9 cleavage site), expressed in A549 cells
For B1, the midbody formation result in the data set with A549 cells was “inhibited the midbody formation”.
